Results: patent publication US20240158368A1, “Pyrrolidine Main Protease Inhibitors as Antiviral Agents” (AbbVie Inc., priority 2022, published 2024)

Assays:
[1] = biological target: SARS-CoV-2 Mpro (Severe acute respiratory syndrome coronavirus 2 (2019-nCoV) (SARS-CoV-2), UniProt P0DTD1); format: biochemical
[2] = biological target: SARS-CoV-1 Mpro (Severe acute respiratory syndrome coronavirus (SARS-CoV), UniProt P0C6X7); format: biochemical
[3] = biological target: MERS Mpro (Middle East respiratory syndrome-related coronavirus (isolate United Kingdom/H123990006/2012) (MERS-CoV) (Betacoronavirus England 1), UniProt K9N7C7); test: biochemical
[4] = biological target: OC43 Mpro (Human coronavirus OC43 (HCoV-OC43), UniProt P0C6X6); format: biochemical
[5] = biological target: 229E Mpro (Human coronavirus 229E (HCoV-229E), UniProt P0C6X1); format: biochemical
[6] = tested on: SARS-CoV-2 (strain USA-WA1/2020); test: microbe, parasite or virus in culture; format: cell-based; conditions: Severe acute respiratory syndrome coronavirus 2; HeLa-ACE2 cells; read-out: Antiviral CoV-2 EC50
[7] = tested on: 229E virus; test: organism not typed; format: cell-based; conditions: Huh-7, read-out: Antiviral 229E EC50 (μM)
[8] = tested on: OC43 virus; test: microbe, parasite or virus in culture; format: cell-based; conditions: Betacoronavirus 1, OC43, Huh-7, read-out: Antiviral OC43 EC50 (μM)
[9] = in vitro; conditions: PAMPA
[10] = in vitro; conditions: rat, microsomes, pH 7.4
[11] = in vitro; conditions: human, microsomes, pH 7.4

229E Mpro, sequence (P0C6X1 2966-3267 limits assumed): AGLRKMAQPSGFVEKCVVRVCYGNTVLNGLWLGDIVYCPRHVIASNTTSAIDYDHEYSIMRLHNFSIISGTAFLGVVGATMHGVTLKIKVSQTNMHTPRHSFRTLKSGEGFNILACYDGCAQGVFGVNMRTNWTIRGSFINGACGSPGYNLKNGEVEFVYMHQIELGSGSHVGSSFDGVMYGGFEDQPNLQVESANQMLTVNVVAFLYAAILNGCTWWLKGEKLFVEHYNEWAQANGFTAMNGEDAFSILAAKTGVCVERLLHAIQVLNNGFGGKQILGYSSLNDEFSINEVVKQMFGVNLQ
OC43 Mpro, sequence (P0C6X6 3247-3549 limits assumed): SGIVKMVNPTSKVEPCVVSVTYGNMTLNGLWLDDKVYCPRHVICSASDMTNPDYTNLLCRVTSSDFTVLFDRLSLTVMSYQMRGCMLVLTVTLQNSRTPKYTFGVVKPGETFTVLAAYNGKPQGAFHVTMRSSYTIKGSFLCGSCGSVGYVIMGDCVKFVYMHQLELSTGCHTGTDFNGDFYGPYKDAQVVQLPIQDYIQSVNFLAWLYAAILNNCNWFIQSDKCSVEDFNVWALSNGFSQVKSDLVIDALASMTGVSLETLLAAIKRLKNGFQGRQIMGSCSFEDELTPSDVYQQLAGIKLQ
MERS Mpro, sequence (K9N7C7 3248-3553 limits assumed): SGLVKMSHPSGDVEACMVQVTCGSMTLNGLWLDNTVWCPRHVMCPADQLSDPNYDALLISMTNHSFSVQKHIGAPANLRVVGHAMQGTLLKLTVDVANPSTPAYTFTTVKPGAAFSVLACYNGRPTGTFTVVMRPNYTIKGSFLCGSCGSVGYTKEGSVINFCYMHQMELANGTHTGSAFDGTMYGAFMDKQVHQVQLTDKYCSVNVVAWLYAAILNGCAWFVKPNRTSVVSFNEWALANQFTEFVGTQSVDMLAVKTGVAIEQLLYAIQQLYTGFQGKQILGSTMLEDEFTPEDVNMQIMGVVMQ

Structure (SMILES) | EC50 [1] [nM] | EC50 [2] [nM] | EC50 [3] [nM] | EC50 [4] [nM] | EC50 [5] [nM] | EC50 [6] [nM] | EC50 [7] [µM] | EC50 [8] [µM] | Papp [9] [×10⁻⁶ cm/s] | CLint scaled [10] [mL/min/kg] | CLint scaled [11] [mL/min/kg]
COc1cccc2[nH]c(=O)cc(C(=O)N[C@@H]3CCN(c4c(C(=O)N5CCOCC5)cc(C#N)cc4C(F)(F)F)C3)c12 [Compound 9] | 0.47 | 0.79 | 1.8 | 2.85 | 2.01 | 319 | 0.11 | 0.28 | 0.34 | < 58.3 | < 35
COc1cccc2[nH]c(=O)cc(C(=O)N[C@@H]3CCN(c4c(Cl)cc(C)cc4C(=O)N4CCOCC4)C3)c12 [Compound 85] | 1.4 | 3.13 | 1.54 | 2.27 | 9.16 | 274 | 0.382 | 0.21 | 3.19 | 288 | 103
Cc1cc(C(=O)N2CCOCC2)c(N2C[C@H](NC(=O)c3cc(=O)[nH]c4c(F)cc(F)cc34)CC2=O)c(C2CC2)c1 [Compound 74] | 0.59 | 1.43 | 1.29 | 3.4 | 7.24 | 52 | 0.248 | 0.429 | 3.54 | < 56.7 | < 33.3
